In publication PMC11357638 (Molecules, 2024):
Positions count from the first letter of the chain named. Like-named read-outs stand apart in the source and are kept apart here. Blank lines part the entries; values can stand above or below the compound they belong to.

Experiments:
[1] = target: T1, hTRPV3 single channel (Homo sapiens, UniProt Q8NET8); test: Inside-out single-channel recording of hTRPV3; assay type: cell-based; details: −60 mV
T1 construct: expressed in transfected cells; host or cells: HEK293T
T1 sequence (Q8NET8 1-790): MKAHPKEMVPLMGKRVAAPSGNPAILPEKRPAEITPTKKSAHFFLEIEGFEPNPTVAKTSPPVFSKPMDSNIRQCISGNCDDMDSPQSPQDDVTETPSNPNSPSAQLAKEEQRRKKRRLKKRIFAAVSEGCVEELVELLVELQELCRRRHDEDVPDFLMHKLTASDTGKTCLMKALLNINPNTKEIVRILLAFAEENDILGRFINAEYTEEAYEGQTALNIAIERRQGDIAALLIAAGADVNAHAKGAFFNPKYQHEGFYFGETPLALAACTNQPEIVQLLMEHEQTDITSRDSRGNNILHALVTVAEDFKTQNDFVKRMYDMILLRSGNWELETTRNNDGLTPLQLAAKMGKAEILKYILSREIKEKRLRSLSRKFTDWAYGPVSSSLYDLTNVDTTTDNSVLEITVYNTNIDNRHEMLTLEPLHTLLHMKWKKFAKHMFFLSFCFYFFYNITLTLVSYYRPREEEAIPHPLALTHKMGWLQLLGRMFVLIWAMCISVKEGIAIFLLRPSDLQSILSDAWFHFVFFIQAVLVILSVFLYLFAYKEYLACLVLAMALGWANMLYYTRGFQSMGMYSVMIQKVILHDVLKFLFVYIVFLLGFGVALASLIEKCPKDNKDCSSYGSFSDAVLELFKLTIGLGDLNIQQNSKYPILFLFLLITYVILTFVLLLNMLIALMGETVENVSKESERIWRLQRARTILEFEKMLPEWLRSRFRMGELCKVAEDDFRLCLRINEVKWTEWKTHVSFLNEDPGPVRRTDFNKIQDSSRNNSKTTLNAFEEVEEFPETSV

[2] = target: T2, human TRPV3 (hTRPV3) channel (Homo sapiens, UniProt Q8NET8); test: Whole-cell patch-clamp of hTRPV3 currents in transfected HEK293T cells; assay type: cell-based
T2 construct: expressed in transfected cells; host or cells: HEK293T
T2 sequence (Q8NET8 1-790): T1 sequence (Q8NET8 1-790)

[3] = target: T3, hTRPV3 I637A mutant (Homo sapiens, UniProt Q8NET8, I637A); test: Whole-cell patch-clamp of hTRPV3 I637A mutant in HEK293T cells; assay type: cell-based; details: I637A hTRPV3, 50 μM 2-APB, +80 mV, Hill fit; read-out: IC50, inhibition of I637A mutant outward currents
T3 construct: expressed in transfected cells; host or cells: HEK293T
T3 sequence (Q8NET8 1-790 I637A): T1 sequence (Q8NET8 1-790) with I637A

[4] = target: T4, hTRPV3 T636A mutant (Homo sapiens, UniProt Q8NET8, T636A); test: Whole-cell patch-clamp of hTRPV3 T636A mutant in HEK293T cells; assay type: cell-based
T4 construct: expressed in transfected cells; host or cells: HEK293T
T4 sequence (Q8NET8 1-790 T636A): T1 sequence (Q8NET8 1-790) with T636A

[5] = system: TRPV3; details: read-out: IC50, TRPV3 inhibition; cited from earlier work
[6] = agonist carvacrol at 300 μM alone

open frequency (Freq) ([1]; agonist 2-APB 50 μM alone): 75.05 ± 6.63 Hz | single-channel conductance ([1]; agonist 2-APB 50 μM alone): 161.6 ± 3.8 pS | single-channel open probability (POPEN) ([1]; agonist 2-APB 50 μM alone): 0.72 ± 0.06
Compound: NCCOB(c1ccccc1)c1ccccc1 [2-APB, 2-aminoethoxydiphenylborate]

IC50 ([2]; WT hTRPV3 in HEK293T, whole-cell, activated by 50 μM 2-APB, at +80 mV, Hill fit, mean ± SD, read-out: IC50, inhibition of hTRPV3 currents): 410 ± 57.9 µM | IC50 [3]: 522 ± 43.8 µM | IC50 ([4]; T636A hTRPV3, 50 μM 2-APB, +80 mV, Hill fit, read-out: IC50, inhibition of T636A mutant outward currents): 417 ± 45.1 µM
Compound: COC(=O)/C=C/c1ccc(O)c(O)c1 [CAMC, caffeic acid methyl caffeate]

Compound: O=C(/C=C/c1ccc(O)c(O)c1)OCCc1ccccc1 [CAPE, caffeic acid phenethyl ester]
IC50 [2]: 277 ± 41.9 µM | IC50 [4]: 506 ± 57.3 µM

Compound: Cc1ccc(C(C)C)cc1O [carvacrol]
open frequency (Freq) [1, 6]: 53.55 ± 7.27 Hz | single-channel conductance [1, 6]: 179.4 ± 12.8 pS | single-channel open probability (POPEN) [1, 6]: 0.56 ± 0.05

Compound: O=C(/C=C/c1ccc(O)c(O)c1)O[C@@H]1C[C@](O)(C(=O)O)C[C@@H](OC(=O)/C=C/c2ccc(O)c(O)c2)[C@H]1O [isochlorogenic acid A]
IC50 [5]: 2.7 ± 1.3 µM

Compound: O=C(/C=C/c1ccc(O)c(O)c1)O[C@@H]1[C@@H](OC(=O)/C=C/c2ccc(O)c(O)c2)C[C@@](O)(C(=O)O)C[C@@H]1O [isochlorogenic acid B]
IC50 [5]: 0.9 ± 0.3 µM

Compound: C[C@@H]1O[C@@H](O[C@@H]2[C@@H](O)[C@H](OCCc3ccc(O)c(O)c3)O[C@H](CO)[C@H]2OC(=O)/C=C/c2ccc(O)c(O)c2)[C@H](O)[C@H](O)[C@H]1O [verbascoside]
IC50 [5]: 14.1 ± 3.3 µM

Compound: forsythiaside B
IC50 [5]: 6.7 ± 0.7 µM
